Laboratory results as given in publication PMC10101059, “Rational Design of Stapled Antimicrobial Peptides to Enhance Stability and In Vivo Potency against Polymicrobial Sepsis” (Microbiology Spectrum, 2023).
Converted amounts (≈) assume the structure as drawn. Read-outs that look alike come from different tables or passages of the source. Peptide text beside a SMILES is read from it.

Columns and labels:
[1] = system: NDM-1 Klebsiella pneumoniae; assay: microbe, parasite or virus in culture; assay type: cell-based
Experimental: (§1) The antimicrobial assay was performed according to a modified National Committee for Clinical Laboratory Standards (NCCLS) protocol ([41], [42]). Briefly, 5 × 10^5 CFU/mL bacterial cells were treated with various peptide concentrations and incubated at 37 ± 2°C for 16 to 20 h. The lowest concentration with clear wells was recorded as the MIC for each test molecule. The clear wells were further plated in Mueller-Hinton agar (MHA) plates, followed by incubation overnight at 37 ± 2°C. After plating, the lowest concentration at which no growth was observed was recorded as the MBC. For the serum sensitivity assay, the antimicrobial activity of the peptides was tested in medium containing 50% human serum ([43], [44]).

Enterobacter aerogenes = assay: microbe, parasite or virus in culture; assay type: cell-based; conditions: MHB medium
Experimental: as §1

Escherichia coli = assay: microbe, parasite or virus in culture; assay type: cell-based
Experimental: as §1

Pseudomonas aeruginosa = assay: microbe, parasite or virus in culture; assay type: cell-based
Experimental: as §1

Salmonella enterica = assay: microbe, parasite or virus in culture; assay type: cell-based; conditions: MHB medium
Experimental: as §1

MDR A. baumannii 921 = assay: microbe, parasite or virus in culture; assay type: cell-based, Acinetobacter baumannii
Experimental: as §1

MDR A. baumannii 1607 = assay: microbe, parasite or virus in culture; assay type: cell-based, Acinetobacter baumannii
Experimental: as §1

MDR A. baumannii 1019 = assay: microbe, parasite or virus in culture; assay type: cell-based, Acinetobacter baumannii
Experimental: as §1

MDR A. baumannii 2962 = assay: microbe, parasite or virus in culture; assay type: cell-based, Acinetobacter baumannii
Experimental: as §1

MDR A. baumannii 1702 = assay: microbe, parasite or virus in culture; assay type: cell-based, Acinetobacter baumannii; conditions: for MBC: read-out: MBC; for MIC: read-out: MIC
Experimental: as §1

MDR A. baumannii 14B0091 = assay: microbe, parasite or virus in culture; assay type: cell-based, Acinetobacter baumannii
Experimental: as §1

MDR A. baumannii 1033 = assay: microbe, parasite or virus in culture; assay type: cell-based, Acinetobacter baumannii; conditions: for MBC: read-out: MBC; for MIC: read-out: MIC
Experimental: as §1

MDR A. baumannii 2982 = assay: microbe, parasite or virus in culture; assay type: cell-based, Acinetobacter baumannii
Experimental: as §1

MDR A. baumannii 2088 = assay: microbe, parasite or virus in culture; assay type: cell-based, Acinetobacter baumannii
Experimental: as §1

MDR A. baumannii 2997 = assay: microbe, parasite or virus in culture; assay type: cell-based, Acinetobacter baumannii; conditions: for MBC: read-out: MBC; for MIC: read-out: MIC
Experimental: as §1

MDR A. baumannii 2998 = assay: microbe, parasite or virus in culture; assay type: cell-based, Acinetobacter baumannii
Experimental: as §1

MDR A. baumannii 3618 = assay: microbe, parasite or virus in culture; assay type: cell-based, Acinetobacter baumannii
Experimental: as §1

[2] = system: human keratinocyte (HaCaT); assay: alamarBlue cytotoxicity assay; assay type: cell-based; conditions: at 0.78 μM, 24 h
Experimental: (§2) (i) Cell culture. Human skin keratinocytes (HaCaT), human kidney (HK-2), and RAW 264.7 macrophage cells were obtained from the Bioresource Collection and Research Center (BCRC, Hsinchu, Taiwan). HaCaT and […] macrophage cells were cultured in Dulbecco’s modified Eagle’s medium (DMEM, Thermo Fischer, MA, USA.) supplemented with 10% FBS, penicillin (100 U/mL), and streptomycin (100 μg/mL) at 37°C under 5% CO2. HK-2 cells were cultured in glucose-free Keratinocyte serum-free medium (K-SFM) supplemented with 0.05 mg/mL bovine pituitary extract (BPE), 5 ng/mL EGF, 100 U/mL penicillin, and […] streptomycin at 37°C in 5% CO2 ([49]).
(§3) In vitro toxicity assay. The cytotoxicity of TP4-3 was evaluated by an alamarBlue assay. HaCaT, HK-2, and RAW 264.7 macrophage cells were seeded at densities of 1 × 10^4 cells/well in 96-well cell plates and treated with the indicated concentrations of TP4 and TP4-3 for 24 h (0.78 to 100 μM). Cells treated with 0.1% Triton X-100 and culture medium served as negative and positive-control groups, respectively. After incubation, the cells were washed and incubated for 2 h at 37°C with 90 μL Dulbecco’s modified Eagle medium (DMEM) containing 10 μL alamarBlue reagent. Fluorescence was recorded using a Spectra Max i3 Multi-Mode detection platform (Molecular Devices, San Jose, CA) to measure cell viability ([50], [51]).

[3] = system: murine macrophage (RAW 264.7); assay: alamarBlue cytotoxicity assay; assay type: cell-based; conditions: at 1.56 μM, 24 h
Experimental: as §2, §3

human kidney cell (HK-2) = assay: alamarBlue cytotoxicity assay; assay type: cell-based; conditions: at 1.56 μM, 24 h
Experimental: as §2, §3

human red blood cells = assay type: cell-based
Experimental: The hemolytic assay was performed after approval from the institutional ethics committee (Academia Sinica Institutional Review Board [IRB]; ID no. AS-IRB02-111075). Blood was collected from healthy humans, and 50 μL of a 2% blood cell suspension in normal saline was treated with an equal volume of peptide at different concentrations. The mixture was then incubated at 37 ± 2°C for 1 h. Next, the cell suspension was centrifuged at 1,000 × g for 10 min. Percent hemolysis was estimated by the absorbance of treated and control supernatant samples at 540 nm ([23], [44]).

[4] = HS, 50% human serum containing MHB medium
[5] = HS, MH medium containing 50% human serum
[6] = HS, MH medium containing 50% human serum, read-out: MBC

SMILES: CC[C@H](C)[C@H](NC(=O)[C@H](CCCCN)NC(=O)[C@H](CCC(=O)O)NC(=O)[C@H](CCCCN)NC(=O)[C@H](CO)NC(=O)[C@H](CCCCN)NC(=O)[C@H](CCCNC(=N)N)NC(=O)[C@H](Cc1ccccc1)NC(=O)[C@H](Cc1ccccc1)NC(=O)[C@H](CC(=O)O)NC(=O)CNC(=O)[C@H](CC(C)C)NC(=O)[C@@H](N)CC(C)C)C(=O)NCC(=O)N[C@@H](CCCCN)C(=O)N[C@@H](CCC(=O)O)C(=O)N[C@@H](Cc1ccccc1)C(=O)N[C@@H](CCCCN)C(=O)N[C@@H](CCCNC(=N)N)C(=O)N[C@H](C(=O)N[C@H](C(=O)N[C@@H](CCC(N)=O)C(=O)N[C@@H](CCCNC(=N)N)C(=O)N[C@H](C(=O)N[C@@H](CCCCN)C(=O)N[C@@H](CC(=O)O)C(=O)N[C@@H](Cc1ccccc1)C(=O)N[C@@H](CC(C)C)C(=O)N[C@@H](CCCNC(=N)N)C(=O)N[C@@H](CC(N)=O)C(=O)N[C@@H](CC(C)C)C(=O)N[C@H](C(=O)N1CCC[C@H]1C(=O)N[C@@H](CCCNC(=N)N)C(=O)N[C@H](C(=O)N[C@@H](CCC(=O)O)C(=O)N[C@@H](CO)C(=O)O)[C@@H](C)O)C(C)C)[C@@H](C)CC)C(C)C)[C@@H](C)CC [LL-37]
- MBC [1, 4]: >25 µM
- MIC [1, 4]: >25 µM
- MBC ([1]; MHB medium): 25 µM (≈ 112 µg/mL)
- MIC ([1]; MHB medium): 25 µM (≈ 112 µg/mL)
- MBC (Enterobacter aerogenes): 6.25 µM (≈ 28.1 µg/mL)
- MIC (Enterobacter aerogenes): 6.25 µM (≈ 28.1 µg/mL)
- MBC (Escherichia coli; [4]): >25 µM
- MIC (Escherichia coli; [4]): >25 µM
- MBC (Escherichia coli; MHB medium): 6.25 µM (≈ 28.1 µg/mL)
- MIC (Escherichia coli; MHB medium): 6.25 µM (≈ 28.1 µg/mL)
- MBC (Pseudomonas aeruginosa; HS, 50% human serum containing MHB medium, read-out: MBC): >25 µM
- MIC (Pseudomonas aeruginosa; HS, 50% human serum containing MHB medium, read-out: MIC): >25 µM
- MBC (Pseudomonas aeruginosa; MHB medium): 6.25−12.5 μM
- MIC (Pseudomonas aeruginosa; MHB medium): 6.25−12.5 μM
- MBC (Salmonella enterica): >25 µM
- MIC (Salmonella enterica): >25 µM
- MBC (MDR A. baumannii 921; [5]): >25 µM
- MIC (MDR A. baumannii 921; [5]): >25 µM
- MBC (MDR A. baumannii 921; MHB medium): 6.25 µM (≈ 28.1 µg/mL)
- MIC (MDR A. baumannii 921; MHB medium): 6.25 µM (≈ 28.1 µg/mL)
- MIC (MDR A. baumannii 1607; [5]): >25 µM
- MBC (MDR A. baumannii 1607; [6]): >25 µM
- MBC (MDR A. baumannii 1607; MHB medium): 3.13 to 6.25 µM
- MIC (MDR A. baumannii 1607; MHB medium): 3.13 µM (≈ 14.1 µg/mL)
- MBC (MDR A. baumannii 1019; [5]): >25 µM
- MIC (MDR A. baumannii 1019; [5]): >25 µM
- MBC (MDR A. baumannii 1019; MHB medium): 6.25 µM (≈ 28.1 µg/mL)
- MIC (MDR A. baumannii 1019; MHB medium): 6.25 µM (≈ 28.1 µg/mL)
- MBC (MDR A. baumannii 2962; [5]): >25 µM
- MIC (MDR A. baumannii 2962; [5]): >25 µM
- MBC (MDR A. baumannii 2962; MHB medium): 6.25 µM (≈ 28.1 µg/mL)
- MIC (MDR A. baumannii 2962; MHB medium): 6.25 µM (≈ 28.1 µg/mL)
- MBC (MDR A. baumannii 1702; [5]): >25 µM
- MIC (MDR A. baumannii 1702; [5]): >25 µM
- MBC (MDR A. baumannii 1702; MHB medium): 3.13 µM (≈ 14.1 µg/mL)
- MIC (MDR A. baumannii 1702; MHB medium): 3.13 µM (≈ 14.1 µg/mL)
- MBC (MDR A. baumannii 14B0091; [5]): >25 µM
- MIC (MDR A. baumannii 14B0091; [5]): >25 µM
- MBC (MDR A. baumannii 14B0091; MHB medium): 3.13 µM (≈ 14.1 µg/mL)
- MIC (MDR A. baumannii 14B0091; MHB medium): 3.13 µM (≈ 14.1 µg/mL)
- MBC (MDR A. baumannii 1033; [5]): >25 µM
- MIC (MDR A. baumannii 1033; [5]): >25 µM
- MBC (MDR A. baumannii 1033; MHB medium): 6.25 µM (≈ 28.1 µg/mL)
- MIC (MDR A. baumannii 1033; MHB medium): 6.25 µM (≈ 28.1 µg/mL)
- MBC (MDR A. baumannii 2982; [5]): >25 µM
- MIC (MDR A. baumannii 2982; [5]): >25 µM
- MBC (MDR A. baumannii 2982; MHB medium): 12.5 µM (≈ 56.2 µg/mL)
- MIC (MDR A. baumannii 2982; MHB medium): 6.25 µM (≈ 28.1 µg/mL)
- MBC (MDR A. baumannii 2088; [6]): >25 µM
- MIC (MDR A. baumannii 2088; HS, MH medium containing 50% human serum, read-out: MIC): >25 µM
- MBC (MDR A. baumannii 2088; MHB medium): 3.13 to 6.25 µM
- MIC (MDR A. baumannii 2088; MHB medium): 3.13 to 6.25 µM
- MBC (MDR A. baumannii 2997; [5]): >25 µM
- MIC (MDR A. baumannii 2997; [5]): >25 µM
- MBC (MDR A. baumannii 2997; MHB medium): 1.56 µM (≈ 7.01 µg/mL)
- MIC (MDR A. baumannii 2997; MHB medium): 1.56 µM (≈ 7.01 µg/mL)
- MIC (MDR A. baumannii 2998; [5]): >25 µM
- MBC (MDR A. baumannii 2998; [6]): >25 µM
- MBC (MDR A. baumannii 2998; MHB medium): 6.25 to 12.5 µM
- MIC (MDR A. baumannii 2998; MHB medium): 6.25 µM (≈ 28.1 µg/mL)
- MBC (MDR A. baumannii 3618; [5]): >25 µM
- MIC (MDR A. baumannii 3618; [5]): >25 µM
- MBC (MDR A. baumannii 3618; MHB medium): 3.13 µM (≈ 14.1 µg/mL)
- MIC (MDR A. baumannii 3618; MHB medium): 3.13 µM (≈ 14.1 µg/mL)

SMILES: CC[C@H](C)[C@H](NC(=O)[C@H](C)NC(=O)[C@H](CCCCN)NC(=O)CNC(=O)[C@H](C)NC(=O)[C@H](CO)NC(=O)[C@H](Cc1ccccc1)NC(=O)[C@H](CC(C)C)NC(=O)CNC(=O)CNC(=O)[C@@H](NC(=O)[C@@H](NC(=O)[C@H](Cc1cnc[nH]1)NC(=O)[C@H](Cc1cnc[nH]1)NC(=O)[C@@H](NC(=O)[C@@H](N)Cc1ccccc1)[C@@H](C)CC)[C@@H](C)CC)[C@@H](C)CC)C(=O)N[C@@H](Cc1cnc[nH]1)C(=O)N[C@@H](CCCNC(=N)N)C(=O)N[C@@H](CC(C)C)C(=O)N[C@H](C(=O)N[C@@H](CCCNC(=N)N)C(=O)N[C@@H](CCCNC(=N)N)C(=O)N[C@@H](CCCNC(=N)N)C(=O)N[C@@H](CCCNC(=N)N)C(=O)N[C@@H](CCCNC(=N)N)C(=O)O)[C@@H](C)CC [TP4, tilapia piscidin 4] (H-FIHHIIGGLFSAGKAIHRLIRRRRR-OH)
- cell death [2]: substantial cell death
- cell death [3]: substantial cell death
- cell death (human kidney cell (HK-2)): substantial cell death
- 15% hemolysis concn (human red blood cells): <3.13 µM
